Consider two compounds from the NIST ThermoML archive (doi:10.1021/acs.jced.5b00116).

Structures are written as SMILES. ± gives the expanded uncertainty stated by the source.

This data set is described as follows: activity coefficient (dimensionless); of the first substance listed, at infinite dilution; wn = mass fraction of the nth substance listed. The conditions noted are these: 101 kPa, Liquid, Chromatography, w1 = 0.

With `CCO` [ethanol] + OCC(O)CO, the activity coefficient (313.15 K) was determined as 4.76 ± 0.5; the activity coefficient (333.15 K) was determined as 3.98 ± 0.42; the activity coefficient (353.15 K) worked out at 3.73 ± 0.39; the activity coefficient (373.15 K) worked out at 3.52 ± 0.37; the activity coefficient (393.15 K) came out at 3.25 ± 0.34.
The corresponding values for `O` [water] + OCC(O)CO are 0.73 ± 0.08, 0.75 ± 0.08, 0.78 ± 0.08, 0.79 ± 0.08 and 0.8 ± 0.08.
